The source of these data is US9357773B2, “Herbicidal agents containing aclonifen” (BAYER CROPSCIENCE AKTIENGESELLSCHAFT, priority 2012, dated 2016).

For assay [1], the system named is Lolium spp. resistant to HRAC group A. Briefly: Greenhouse trial, post-emergence action against resistant ryegrass biotype (HRAC group A). Particulars: post-emergence (PO, BBCH 11), about 3 weeks after application. The class given is in vivo. As for the experimental part:
(§1) In the standard design of the test, seeds of various broad-leaved weed and weed grass biotypes (origins) were sown in a 8-13 cm diameter pot filled with natural soil of a standard field soil (loamy silt; non-sterile) and covered with a covering soil layer of about 1 cm. The pots were then cultivated in a greenhouse (12-16 h light, temperature day 20-22° C., night 15-18° C.) until the time of application. The pots were treated on a laboratory track sprayer with spray liquors comprising the compositions according to the invention, mixtures of the prior art or components used individually. Application of the active compounds or active compound combinations formulated as WG, WP, EC or otherwise was carried out at the appropriate growth stages of the plants. The amount of water used for spray application was 100-600 l/ha. After the treatment, the plants were returned to the greenhouses.
(§2) About 3 weeks after the application, the soil action or/and foliar action was assessed visually according to a scale of 0-100% in comparison to an untreated comparative group: 0%=no noticable effect compared to the untreated comparative group; 100%=full effect compared to the untreated comparative group.
(§3) (Notes: the term “seeds” also includes vegetative propagation forms such as, for example, rhizome pieces; abbreviations used: h light=hours of illumination, g of AS/ha=grams of active substance per hectare, l/ha=liter per hectare, S=sensitive, R=resistant) • 1. Pre-emergence action against weeds: seeds of various broad-leaved weed and weed grass biotypes (origins) were sown in a 8-13 cm diameter pot filled with natural soil of a standard field soil (loamy silt; non-sterile) and covered with a covering soil layer of about 1 cm. The pots were then cultivated in a greenhouse (12-16 h light, temperature day 20-22° C., night 15-18° C.) until the time of application. […]

Assay [2] deals with Lolium spp. resistant to HRAC group B. Description: Greenhouse trial, post-emergence action against resistant ryegrass biotype (HRAC group B). The class given is in vivo. Particulars: post-emergence (PO, BBCH 11), about 3 weeks after application. As for the experimental part:
as §1, §2, §3

`Nc1c([N+](=O)[O-])ccc(Oc2ccccc2)c1Cl` [(A) aclonifen, 2-chloro-6-nitro-3-phenoxybenzenamine]: the entries for the “effect (visual scale 0-100% vs untreated)” value in assay [1] (225 g of AS/ha) and in assay [2] (225 g of AS/ha) were 25% and 50%, respectively.

For `Cn1nc(C(F)(F)F)c(CS(=O)(=O)C2=NOC(C)(C)C2)c1OC(F)F` [(B) pyroxasulfone, 3-[[[5-(difluoromethoxy)-1-methyl-3-(trifluoromethyl)-1H-pyrazol-4-yl]methyl]sulfonyl]-4,5-dihydro-5,5-dimethylisoxazole], the “effect (visual scale 0-100% vs untreated)” value in assay [1] (13 g of AS/ha) is 45%; in assay [2] (13 g of AS/ha), 70%.

As for `O=C(Nc1ccc(F)cc1)c1cccc(Oc2cccc(C(F)(F)F)c2)n1` [(C) picolinafen, N-(4-fluorophenyl)-6-[3-(trifluoromethyl)phenoxy]-2-pyridinecarboxamide], the “effect (visual scale 0-100% vs untreated)” value was 10% in assay [1] (25 g of AS/ha) and 5% in assay [2] (25 g of AS/ha).
